{"source": "patent US20200164078A1", "about": "“APPLICABLE CHEMICAL COMPOSITION COMPRISING AN AGENT CONJUGATED TO A HYDROPHOBIC MOIETY AND A CARRIER” (TECHNISCHE UNIVERSITEIT EINDHOVEN, priority 2017, published 2020)", "key": {"CC531 cells": {"test_system": "CC531 cells", "details": "approximately 24 hour incubation; for Efficacy: MTT; for EC50: global sigmoidal fit of three assays, n=8, ±SD", "procedure": "After approximately 24 hour incubation in the cell incubator, 25 μL of freshly prepared MTT solution (5 mg/mL in PBS, filtered through 0.2 μm filter) was added to the wells and incubated for 2 hours. The medium was then completely removed and replaced with 125 μL 0.04 M HCl in isopropanol and incubated for 1 hour. After gently mixing, 100 μl of the isopropanol solution was transferred to a Costar EIA/RIA 96 transparent flat bottom wells plate. The absorbance was measured at 570 nm with 650 nm as reference. Absorbance of MTT was read out on a Tecan Saffire 2 plate reader and Tecan Spark 10M plate reader. Values were normalized to untreated cells. The complete assay was performed three times for CC531 cells. All data sets were used together to fit a global sigmoidal dose response curve with a shared slope and center, giving one EC50 per cell line. A concatenate fit was plotted through the MTT results for visualization. […] Every experiment n=8, ±SD."}, "[1]": {"details": "cited from earlier work"}, "[2]": {"assay": "Stability measurements by UV absorption in PBS", "details": "200 mg/L, day 0-13"}, "[3]": {"assay": "Release from 10 wt % bifunctional UPy-PEG10k hydrogel into PBS", "format": "physicochemical", "description": "The UPy-PEG10k liquid carrier composition was prepared by dissolving the UPy-PEG10k powder in PBS at elevated pH by stirring at 70° C. for 1 h using a magnetic stirrer (e.g. 10 mg in 90 μl PBS pH 11.7 for a 10 wt % hydrogel). Afterwards the viscous solution was cooled to RT with a resulting pH of approximately 9.0. […] The obtained composition is a liquid composition at this pH.\n100 μL of the solutions were transferred to Millicell hanging cell culture inserts (PIEP12R48/MCEP24H48) and immediately placed in a 24-well plate with 600 μL PBS per well. Contact with the neutral PBS through the membrane of the insert results in gelation of the liquid carrier, forming the hydrogel. At set time-points the PBS was refreshed and the removed PBS was analyzed for MMC or MPC content. Analysis was performed by measuring UV absorption and converted to concentration via predetermined standard curves. […] […]. Release of MPC can be correlated to the erosion of the hydrogel. The initial goal to couple cholesterol to MMC to slow down the release from the hydrogel is accomplished hereby."}}, "note": "“Also recorded” adds a separate entry of the source."}
{"molecule": "Mitomycin-PEG24-Cholesterol [MPC]", "values": [{"measurement": "Efficacy", "setting": "CC531 cells", "value": "approximately 100%"}, {"measurement": "EC50", "setting": "CC531 cells", "value": "3.8 ± 1.1", "unit": "µM"}]}
{"molecule": "COc1cccc2c1C(=O)c1c(O)c3c(c(O)c1C2=O)C[C@@](O)(C(C)=O)C[C@@H]3O[C@H]1C[C@H](N)[C@H](O)[C@H](C)O1", "note": "[Daunorubicin]", "values": [{"measurement": "Water solubility", "setting": "[1]", "value": 39, "unit": "µg/mL"}]}
{"molecule": "CO[C@@]12[C@H](COC(N)=O)C3=C(C(=O)C(C)=C(N)C3=O)N1C[C@@H]1N[C@@H]12", "note": "[MMC, Mitomycin C]", "values": [{"measurement": "Stability (UV absorption spectra)", "setting": "[2]; pH 6.5, 37° C.", "value": "unstable; also recorded: degrades"}, {"measurement": "Stability (UV absorption spectra)", "setting": "[2]; pH 7.4, 4° C.", "value": "stable"}, {"measurement": "Stability (UV absorption spectra)", "setting": "[2]; pH 7.4, 37° C.", "value": "stable"}, {"measurement": "Efficacy", "setting": "CC531 cells", "value": "approximately 100%"}, {"measurement": "EC50", "setting": "CC531 cells", "value": "19.6 ± 3.2", "unit": "µM"}, {"measurement": "Release (%)", "setting": "[3]; 0.3 mM in gel, time 0.05 day", "value": 38.93, "unit": "%"}, {"measurement": "Release (%)", "setting": "[3]; 0.3 mM in gel, time 0.21 day", "value": 69.58, "unit": "%"}, {"measurement": "Release (%)", "setting": "[3]; 0.3 mM in gel, time 1.00 day", "value": 86.44, "unit": "%"}, {"measurement": "Release (%)", "setting": "[3]; 3 mM in gel, time 0.06 day", "value": 34.09, "unit": "%"}, {"measurement": "Release (%)", "setting": "[3]; 3 mM in gel, time 0.17 day", "value": 58.33, "unit": "%"}, {"measurement": "Release (%)", "setting": "[3]; 3 mM in gel, time 0.38 day", "value": 79.92, "unit": "%"}, {"measurement": "Release (%)", "setting": "[3]; 3 mM in gel, time 1.00 day", "value": 95.83, "unit": "%"}, {"measurement": "Release (%)", "setting": "[3]; 3 mM in gel, time 2.00 day", "value": 102.65, "unit": "%"}, {"measurement": "Time of release from the hydrogel", "setting": "[3]; 10 wt % UPy-PEG10k hydrogel, diffusion kinetics", "value": "approximately 24 hours"}]}
{"molecule": "COc1cccc2c1C(=O)c1c(O)c3c(c(O)c1C2=O)C[C@@](O)(C(=O)CO)C[C@@H]3O[C@H]1C[C@H](N)[C@H](O)[C@H](C)O1", "note": "[Doxorubicin]", "values": [{"measurement": "Water solubility", "setting": "[1]", "value": 1180, "unit": "µg/mL"}]}
{"molecule": "CC(C)CCC[C@@H](C)[C@H]1CC[C@H]2[C@@H]3CC=C4C[C@@H](O)CC[C@]4(C)[C@H]3CC[C@]12C", "note": "[Cholesterol]", "values": [{"measurement": "Water solubility", "setting": "[1]", "value": "Less than 0.000095 mg/mL)"}]}
{"molecule": "Nc1ccn([C@@H]2O[C@H](CO)[C@@H](O)C2(F)F)c(=O)n1", "note": "[Gemcitabine]", "values": [{"measurement": "Water solubility", "setting": "[1]", "value": 51300, "unit": "µg/mL"}]}
